Holding throughout (experiment): growth of human tumour cells (NCI), 48 h
In test [1] the test system is HT29 colon.
The subject of test [2] is UACC-62 melanoma.
Test [3] deals with TK-10 renal.
Test [4] has as its system 786-0 renal.
Test [5] deals with EKVX NSCLC.
Test [6] deals with UACC-257 melanoma.
For test [7], the system named is NCI-H226 lung.
Test [8] relates to MALME-3M melanoma.
Test [9] concerns NCI/ADR-RES ovarian.

Each structure is given as a SMILES string.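 1) Cells in 96-well plates. 2) Compound, 48 h, 5 concentrations. 3) Linear interpolation between surrounding doses. 4) Unreached endpoint = highest concentration. The concentration for 50% growth inhibition is given as GI50. Definition used: TGI = concentration required for complete inhibition of growth.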 Bounds are passed on as bounds.

For `Cn1c2c(c3ccccc31)CCN(CCCCN1CCCCC1)C2=O`, the TGI in [1] was over 100 µM; in test [2], 66 µM; in test [3], over 100 µM; in test [4], over 100 µM; in [5], over 100 µM; in test [6] it was over 100 µM.

Turning to `C/C(=C1/N=C(c2cc([N+](=O)[O-])ccc2Cl)N(c2cccc(C)c2)C1=O)c1cc2ccccc2oc1=O`, the TGI in test [1], in test [2], in [7], in test [3], in test [4] and in test [8] was over 100 µM each time. Also, the TGI in [5] was over 100 µM; in test [6], 77.3 µM.

Take `CN(CCN1C(=O)c2cc([N+](=O)[O-])cc3cc([N+](=O)[O-])cc(c23)C1=O)CCN1C(=O)c2cc([N+](=O)[O-])cc3cc([N+](=O)[O-])cc(c23)C1=O`: the TGI in [1] was over 100 µM; in [2], 3.8 µM; in [7] it was 9.69 µM; in test [3], over 100 µM; in [4] it was 13.7 µM; in test [8] it was 4.31 µM. In addition, the TGI in [5] was over 100 µM; in [6] it was 9.42 µM.

Take `CC(C)(O)[C@@H]1CC[C@@]2(C)CCCC(O)C2(O)C1` (stereo partly specified): the TGI in test [1], in test [2], in [7], in test [3], in test [4] and in test [8] was over 100 µM each time. In addition, the TGI in test [6] was over 100 µM.

As to `Cc1nc(-n2nc(-c3ccccc3)cc2-c2ccccc2)sc1C(=O)/C=C/c1ccc(/C=C/C(=O)c2sc(-n3nc(-c4ccccc4)cc3-c3ccccc3)nc2C)cc1`, the TGI in test [1] is 44.8 µM; in test [7], 71.2 µM; in test [3] it was 87.6 µM; in [4], 33.4 µM; in [8], 40.2 µM; in test [5] it was over 100 µM. For the same molecule, the TGI in [6] is 45.6 µM.

On to `COc1ccc(C(c2cc(OC)c(OC)c(OC)c2)n2ccnc2)cc1O` (stereo unspecified), for which the GI50 was 0.312 µM in [1]; 0.668 µM in test [2]; 0.64 µM in test [7]; 0.369 µM in test [4]; 0.72 µM in test [5]; 1.92 µM in [9]. In [6], the GI50 was 1.44 µM. Further, the TGI in test [1] is 1.02 µM; in test [2], over 100 µM; in test [7] it was over 100 µM; in [4], over 100 µM; in test [5] it was over 100 µM; in test [9], over 100 µM. In addition, the TGI in test [6] is over 100 µM.

For `O=C1NC(Cc2ccc(O)cc2)C(=O)N2CCCC12` (stereo unspecified), the TGI in [1], in test [2], in test [7], in [3], in test [4] and in [8] was over 100 µM throughout. The TGI in [5] and in test [6] was over 100 µM in each case.

Turning to `COC(=O)CCC(NC(=S)N/N=C(\C)c1cnc2ccccc2n1)C(=O)OC` (stereo unspecified), the TGI in [1] is 31.3 µM; in [2], 38.5 µM; in [7] it was over 100 µM; in test [3], over 100 µM; in test [4], over 100 µM; in [8], over 100 µM. The TGI in test [5] and in [6] was over 100 µM each time.

On to `CCOC(=O)c1ccc(NC(=O)Nc2nncs2)cc1`, for which the GI50 is 0.189 µM in test [1]; 0.0761 µM in [2]; 1.09 µM in test [7]; 5.79 µM in test [3]; 0.474 µM in test [4]; 0.132 µM in test [8]. Moreover, the GI50 in [9] is 0.229 µM; in test [6] it was 1.43 µM. Further, the TGI was 10.9 µM in test [1]; 26.4 µM in test [2]; 19.5 µM in test [7]; 41.2 µM in test [3]; 14.5 µM in [4]; 36.1 µM in test [8]. In addition, the TGI in [9] was 10.6 µM; in [6], over 85.1 µM.

`CN(C)C=Nc1ccn(CCO)c(=O)n1`: the TGI in test [1], in test [2], in [7], in [3], in test [4] and in [8] was over 100 µM throughout. Also, the TGI in [5] and in test [6] was over 100 µM throughout.

For `COC(=O)C(C(=O)C(=O)Nc1c(C)cccc1C)c1cnc2ccccc2n1` (stereo unspecified), the TGI in test [1], in test [2], in test [7], in test [3], in [4] and in [8] was over 100 µM each time. The TGI in [5] and in test [6] was over 100 µM each time.

Regarding `N#CCCN(c1ccc(C=Nc2ccccc2)cc1)S(=O)(=O)c1ccccc1`, the TGI in test [1], in test [2], in [7], in test [3], in [4] and in test [8] was over 100 µM throughout. Also, the TGI in [5] and in test [6] was over 100 µM in each case.

In the case of `O=C(N/C(=C\c1ccc(Cl)cc1)c1nc2ccccc2[nH]1)c1ccccc1`, the TGI was 81.3 µM in test [1]; 32.3 µM in test [2]; 44.9 µM in test [7]; 63.8 µM in test [3]; 43.9 µM in test [4]; over 100 µM in [8]. In addition, the TGI in test [5] is 58.1 µM; in test [6], 46.2 µM.

As to `CN1C(=O)CCC1(O)C1C=CC=CC1` (stereo unspecified), the TGI in test [1], in test [2], in [7], in test [3], in test [4] and in [8] was over 100 µM throughout. The same molecule displayed a TGI in test [6] of over 100 µM.

The record behind these values is PubChem BioAssay (NCI).
